From patent US20250059182A1, “SOS1 INHIBITORS” (Mirati Therapeutics, Inc., priority 2021, published 2025)

Columns and labels:
[1] = molecular target: T1, recombinant human SOS1 polypeptide (amino acids 560-1049) (Homo sapiens, UniProt Q07889); experiment: HTRF displacement assay: inhibition of labeled tracer binding to SOS1; settings: Table A, Morrison equation for competitive binding
T1 construct: corresponding to amino acids 560-1049, expressed in E. Coli; made in house; host or cells: E. coli
T1 sequence (Q07889 560-1049): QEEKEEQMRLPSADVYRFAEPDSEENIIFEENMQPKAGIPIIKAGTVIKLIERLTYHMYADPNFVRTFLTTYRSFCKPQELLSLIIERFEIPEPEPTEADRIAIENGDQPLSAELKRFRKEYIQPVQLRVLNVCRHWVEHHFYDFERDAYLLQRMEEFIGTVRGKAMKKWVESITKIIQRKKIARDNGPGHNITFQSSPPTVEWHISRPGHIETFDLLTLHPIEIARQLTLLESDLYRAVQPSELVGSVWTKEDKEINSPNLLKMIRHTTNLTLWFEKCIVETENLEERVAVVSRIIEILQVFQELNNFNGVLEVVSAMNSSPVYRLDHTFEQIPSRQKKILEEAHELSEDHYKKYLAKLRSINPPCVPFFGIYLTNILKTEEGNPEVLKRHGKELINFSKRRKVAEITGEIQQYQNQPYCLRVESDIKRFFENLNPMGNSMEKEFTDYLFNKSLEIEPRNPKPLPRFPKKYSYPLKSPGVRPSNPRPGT

[2] = tested on: pERK in MKN1 cells; experiment: pERK inhibition, In-Cell Western (LI-COR Odyssey), MKN1 cells; format: cell-based; settings: Homo sapiens, MKN-1, Table B; MKN1 or H358 cells (table does not say which); 0.5-1 hour incubation; read-out: IC50 (nM), pERK inhibition
In short: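 IC50 was fitted from % pERK inhibition, calculated as the GAPDH-normalised pERK signal of each well divided by the vehicle mean. Signal was imaged at 700 and 800 nm after fixation, methanol permeabilisation and dual antibody staining. Before fixation, MKN1 cells had received compound for about 0.5–1 h at 37 °C, top concentration 10 µM, nine 3-fold dilutions.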

Compound | Ki [1] | IC50 [2]
CCN1CC2(C1)CN(c1cc3c(N[C@H](C)c4cccc(C(F)(F)F)c4F)nnc(C)c3cn1)C2 [Example 1-27, (R)-7-(6-ethyl-2,6-diazaspiro[3.3]heptan-2-yl)-N-(1-(2-fluoro-3-(trifluoromethyl)phenyl)ethyl)-4-methylpyrido[3,4-d]pyridazin-1-amine] | 0.27 nM | 18.6 nM
Cc1c([C@@H](C)Nc2nnc(C)c3cnc(N4CC5(CN(C)C5)C4)cc23)cccc1C(F)(F)F [Example 1-32, (R)-4-methyl-N-(1-(2-methyl-3-(trifluoromethyl)phenyl)ethyl)-7-(6-methyl-2,6-diazaspiro[3.3]heptan-2-yl)pyrido[3,4-d]pyridazin-1-amine] | 0.163 nM | 32.3 nM
Cc1c(C#N)cccc1[C@@H](C)Nc1nnc(C)c2cnc(N3CCN(C4CC4)CC3)cc12 [Example 1-33, (R)-3-(1-((7-(4-cyclopropylpiperazin-1-yl)-4-methylpyrido[3,4-d]pyridazin-1-yl)amino)ethyl)-2-methylbenzonitrile] | 1.87 nM | 87.8 nM
Cc1c(C#N)cccc1[C@@H](C)Nc1nnc(C)c2cnc(N3C[C@@H]4C[C@H]3CN4C)cc12 [Example 1-34, 2-methyl-3-((R)-1-((4-methyl-7-((1S,4S)-5-methyl-2,5-diazabicyclo[2.2.1]heptan-2-yl)pyrido[3,4-d]pyridazin-1-yl)amino)ethyl)benzonitrile] | 2.25 nM | 49.2 nM
Cc1c(C#N)cccc1[C@@H](C)Nc1nnc(C)c2cnc(N3C[C@H]4C[C@@H]3CN4C)cc12 [Example 1-35, 2-methyl-3-((R)-1-((4-methyl-7-((1R,4R)-5-methyl-2,5-diazabicyclo[2.2.1]heptan-2-yl)pyrido[3,4-d]pyridazin-1-yl)amino)ethyl)benzonitrile] | 1.19 nM | 18.4 nM
CCN1C[C@@H]2C[C@H]1CN2c1cc2c(N[C@H](C)c3cccc(C#N)c3C)nnc(C)c2cn1 [Example 1-36, 3-((R)-1-((7-((1S,4S)-5-ethyl-2,5-diazabicyclo[2.2.1]heptan-2-yl)-4-methylpyrido[3,4-d]pyridazin-1-yl)amino)ethyl)-2-methylbenzonitrile] | 3.43 nM | 75.5 nM
CCN1C[C@H]2C[C@@H]1CN2c1cc2c(N[C@H](C)c3cccc(C#N)c3C)nnc(C)c2cn1 [Example 1-37, 3-((R)-1-((7-((1R,4R)-5-ethyl-2,5-diazabicyclo[2.2.1]heptan-2-yl)-4-methylpyrido[3,4-d]pyridazin-1-yl)amino)ethyl)-2-methylbenzonitrile] | 1.61 nM | 19.7 nM
CCN1CC[C@H](Nc2cc3c(N[C@H](C)c4cccc(C#N)c4C)nnc(C)c3cn2)C1 [Example 1-38, 3-((R)-1-((7-(((S)-1-ethylpyrrolidin-3-yl)amino)-4-methylpyrido[3,4-d]pyridazin-1-yl)amino)ethyl)-2-methylbenzonitrile] | 5.6 nM | 221 nM
CCN1CC[C@@H](Nc2cc3c(N[C@H](C)c4cccc(C#N)c4C)nnc(C)c3cn2)C1 [Example 1-39, 3-((R)-1-((7-(((R)-1-ethylpyrrolidin-3-yl)amino)-4-methylpyrido[3,4-d]pyridazin-1-yl)amino)ethyl)-2-methylbenzonitrile] | 4 nM | 126 nM
Cc1c(C#N)cccc1[C@@H](C)Nc1nnc(C)c2cnc(N(C)C3CCN(C)CC3)cc12 [Example 1-40, (R)-2-methyl-3-(1-((4-methyl-7-(methyl(1-methylpiperidin-4-yl)amino)pyrido[3,4-d]pyridazin-1-yl)amino)ethyl)benzonitrile] | 0.805 nM | 45.4 nM
Cc1c(C#N)cccc1[C@@H](C)Nc1nnc(C)c2cnc(NC3CCN(C)CC3)cc12 [Example 1-41, (R)-2-methyl-3-(1-((4-methyl-7-((1-methylpiperidin-4-yl)amino)pyrido[3,4-d]pyridazin-1-yl)amino)ethyl)benzonitrile] | 4.49 nM | 272 nM
CCN1CCC(Nc2cc3c(N[C@H](C)c4cccc(C#N)c4C)nnc(C)c3cn2)CC1 [Example 1-42, (R)-3-(1-((7-((1-ethylpiperidin-4-yl)amino)-4-methylpyrido[3,4-d]pyridazin-1-yl)amino)ethyl)-2-methylbenzonitrile] | 7.37 nM | 257 nM
CCN1CCC(N(C)c2cc3c(N[C@H](C)c4cccc(C#N)c4C)nnc(C)c3cn2)CC1 [Example 1-43, (R)-3-(1-((7-((1-ethylpiperidin-4-yl)(methyl)amino)-4-methylpyrido[3,4-d]pyridazin-1-yl)amino)ethyl)-2-methylbenzonitrile] | 1.28 nM | 42.2 nM
CCN1CCN(c2cc3c(N[C@H](C)c4cccc(C#N)c4C)nnc(C)c3cn2)CC1=O [Example 1-44, (R)-3-(1-((7-(4-ethyl-3-oxopiperazin-1-yl)-4-methylpyrido[3,4-d]pyridazin-1-yl)amino)ethyl)-2-methylbenzonitrile] | 1.9 nM | 44.6 nM
Cc1c(C#N)cccc1[C@@H](C)Nc1nnc(C)c2cnc(N3CC[C@H](O)C3)cc12 [Example 1-46, 3-((R)-1-((7-((S)-3-hydroxypyrrolidin-1-yl)-4-methylpyrido[3,4-d]pyridazin-1-yl)amino)ethyl)-2-methylbenzonitrile] | 1.95 nM | 71.3 nM
Cc1c(C#N)cccc1[C@@H](C)Nc1nnc(C)c2cnc(N3CC[C@@H](O)C3)cc12 [Example 1-47, 3-((R)-1-((7-((R)-3-hydroxypyrrolidin-1-yl)-4-methylpyrido[3,4-d]pyridazin-1-yl)amino)ethyl)-2-methylbenzonitrile] | 1.33 nM | 50.3 nM
CO[C@H]1CCN(c2cc3c(N[C@H](C)c4cccc(C#N)c4C)nnc(C)c3cn2)C1 [Example 1-48, 3-((R)-1-((7-((S)-3-methoxypyrrolidin-1-yl)-4-methylpyrido[3,4-d]pyridazin-1-yl)amino)ethyl)-2-methylbenzonitrile] | 2.02 nM | 39.2 nM
CO[C@@H]1CCN(c2cc3c(N[C@H](C)c4cccc(C#N)c4C)nnc(C)c3cn2)C1 [Example 1-49, 3-((R)-1-((7-((R)-3-methoxypyrrolidin-1-yl)-4-methylpyrido[3,4-d]pyridazin-1-yl)amino)ethyl)-2-methylbenzonitrile] | 2.01 nM | 36 nM
Cc1c(C#N)cccc1[C@@H](C)Nc1nnc(C)c2cnc(N3CC[C@H](NS(C)(=O)=O)C3)cc12 [Example 1-50, N-((S)-1-(1-(((R)-1-(3-cyano-2-methylphenyl)ethyl)amino)-4-methylpyrido[3,4-d]pyridazin-7-yl)pyrrolidin-3-yl)methanesulfonamide] | 2.07 nM | 602 nM
Cc1c(C#N)cccc1[C@@H](C)Nc1nnc(C)c2cnc(N(C)[C@H]3CCNC3)cc12 [Example 1-51, 2-methyl-3-((R)-1-((4-methyl-7-(methyl((S)-pyrrolidin-3-yl)amino)pyrido[3,4-d]pyridazin-1-yl)amino)ethyl)benzonitrile] | 0.867 nM | 275 nM
Cc1c(C#N)cccc1[C@@H](C)Nc1nnc(C)c2cnc(N(C)[C@@H]3CCNC3)cc12 [Example 1-52, 2-methyl-3-((R)-1-((4-methyl-7-(methyl((R)-pyrrolidin-3-yl)amino)pyrido[3,4-d]pyridazin-1-yl)amino)ethyl)benzonitrile] | 1.11 nM | 457 nM
Cc1c(C#N)cccc1[C@@H](C)Nc1nnc(C)c2cnc(N(C)[C@H]3CCCNC3)cc12 [Example 1-53, 2-methyl-3-((R)-1-((4-methyl-7-(methyl((S)-piperidin-3-yl)amino)pyrido[3,4-d]pyridazin-1-yl)amino)ethyl)benzonitrile] | 0.853 nM | 210 nM
Cc1c(C#N)cccc1[C@@H](C)Nc1nnc(C)c2cnc(N(C)[C@@H]3CCCNC3)cc12 [Example 1-54, 2-methyl-3-((R)-1-((4-methyl-7-(methyl((R)-piperidin-3-yl)amino)pyrido[3,4-d]pyridazin-1-yl)amino)ethyl)benzonitrile] | 1.2 nM | 142 nM
Cc1c(C#N)cccc1[C@@H](C)Nc1nnc(C)c2cnc(N(C)C[C@@H]3CCCN3)cc12 [Example 1-55, 2-methyl-3-((R)-1-((4-methyl-7-(methyl(((S)-pyrrolidin-2-yl)methyl)amino)pyrido[3,4-d]pyridazin-1-yl)amino)ethyl)benzonitrile] | 2.18 nM | 290 nM
Cc1c(C#N)cccc1[C@@H](C)Nc1nnc(C)c2cnc(N(C)C[C@H]3CCCN3)cc12 [Example 1-56, 2-methyl-3-((R)-1-((4-methyl-7-(methyl(((R)-pyrrolidin-2-yl)methyl)amino)pyrido[3,4-d]pyridazin-1-yl)amino)ethyl)benzonitrile] | 2.15 nM | 246 nM
Cc1c(C#N)cccc1[C@@H](C)Nc1nnc(C)c2cnc(N(C)C[C@@H]3CCCN3C)cc12 [Example 1-57, 2-methyl-3-((R)-1-((4-methyl-7-(methyl(((S)-1-methylpyrrolidin-2-yl)methyl)amino)pyrido[3,4-d]pyridazin-1-yl)amino)ethyl)benzonitrile] | 1.59 nM | 39.2 nM
